From patent US20110319379A1, “Substituted Indazole Amides And Their Use As Glucokinase Activators” (priority 2009, published 2011)

Each compound was assayed against T1, recombinant human glucokinase (Homo sapiens, UniProt P35557) (assay: Assay 2: Evaluating Activator Potency in a Matrix Assay at Multiple Glucose Concentrations). Settings: Assay 2 matrix assay; 16 glucose concentrations; intrinsic EC50 = concentration affording a 50% reduction in the enzyme's Km (for glucose); read-out: Glucokinase EC50.
T1 construct: Full-length glucokinase (beta cell isoform) was His-tagged at the N-terminus and purified by a Ni column followed by size exclusion chromatography as described above; His tag; made in house; host or cells: E. coli BL21(DE3), vector pBCGK
T1 sequence (P35557 1-465): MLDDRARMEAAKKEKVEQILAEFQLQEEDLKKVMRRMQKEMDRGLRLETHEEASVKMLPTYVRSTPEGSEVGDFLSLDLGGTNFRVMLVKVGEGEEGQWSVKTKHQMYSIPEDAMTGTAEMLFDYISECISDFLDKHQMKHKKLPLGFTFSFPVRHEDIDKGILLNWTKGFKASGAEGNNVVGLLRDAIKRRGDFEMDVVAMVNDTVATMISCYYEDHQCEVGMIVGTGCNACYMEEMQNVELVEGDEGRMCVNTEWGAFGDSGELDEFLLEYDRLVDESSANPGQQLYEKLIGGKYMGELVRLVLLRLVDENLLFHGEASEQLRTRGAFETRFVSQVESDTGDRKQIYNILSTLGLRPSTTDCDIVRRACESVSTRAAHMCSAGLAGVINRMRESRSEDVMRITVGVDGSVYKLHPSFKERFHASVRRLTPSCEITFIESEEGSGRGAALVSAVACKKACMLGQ
Type: biochemical
Description: Representative compounds of this invention were evaluated in biochemical assays (Assay 1 or Assay 2) to characterize their glucokinase activation properties.
The recombinant human glucokinase protein utilized in both assays was prepared and purified as described below.
BL21(DE3) cells (Invitrogen Corporation, Carlsbad, Calif.) containing pBCGK (C or N H is) vector were grown at 37° C. (in 2XYT) until the OD600 was between 0.6-1.0. Expression was induced by addition of isopropylthiogalactoside to a final concentration of 0.1-0.2 mM to the cells which were then incubated overnight at 23° C. The next day, cells were harvested via centrifugation at 5000 rpm for 15 minutes at 4° C. The cell pellet was stored at −80° C. for future purification.
Beta Cell Glucokinase His-Taq Purification Conditions: A Ni-NTA (Quigan, Germantown, Md.) column (15-50 mL) was used for separation. Two buffers were prepared, 1) a lysis/nickel equilibration and wash buffer and 2) a nickel elution buffer. The lysis/equilibration/wash buffer was prepared as such: 25 mM HEPES buffer at pH 7.5, 250 mM NaCl, 20 mM imidazole, and 14 mM β-mercaptoethanol as final concentrations. The elution buffer was prepared as such: 25 mM HEPES at pH 7.5, 250 mM NaCl, 400 mM imidazole, and 14 mM β-mercaptoethanol as final concentrations. The buffers were each filtered with a 0.22 μm filter prior to use. The cell pellet (1 L culture) was resuspended in 300 mL of the lysis/equilibration buffer. The cells were then lysed (3 times) with a Microfluidics Model 110Y microfluidizer (Microfluidics Corporation, Newton, Mass.). The slurry was centrifuged with a Beckman Coulter Model LE-80K ultracentrifuge (Beckman Coulter, Fullerton, Calif.) at 40,000 rpm for 45 minutes at 4° C. The supernatant was transferred to a chilled flask. A volume of 20 μl was saved for gel analysis. A Pharmacia AKTA (GMI, Inc., Ramsey, Minn.) purification system was used for separation. The prime lines were purged with lysis/equilibration buffer. The Ni-NTA column was equilibrated with 200 mL of the lysis/equilibration buffer at a flow rate of 5 mL/minute. The supernantant was loaded over the column at 4 mL/minute and the flow-through was collected in a flask. The unbound proteins were washed with lysis/equilibration buffer at a flow rate of 5 mL/minute until the ultraviolet reaches baseline. The protein was then eluted from the column with the imidazole elution buffer via imidazole gradient 20 mM to 400 mM over 320 mL. The column was then stripped of any additional protein with 80 mL of the elution buffer. The elution fractions were each 8 mL, for a total yield of 50 samples. Fractions were analyzed by sodium dodecyl sulfate polyacrylamide (SDS-PAGE) and the fractions containing protein of interest were pooled and concentrated to 10 mL using ultrafiltration cell with a 10,000 molecular weight cut-off (MWCO) Millipore membrane (Sigma-Aldrich, St. Louis, Mo.) under nitrogen gas (60 psi). Protein was further purified by size exclusion chromatography (SEC) using a […] (320 mL) (Amersham Pharmacia, Uppsala, Sweden). SEC was equilibrated with 450 mL sizing buffer containing 25 mM HEPES pH 7.0, 50 mM NaCl, and 5 mM dithiothreitol. Concentrated protein was then loaded over SEC and elution with 400 mL sizing buffer was performed overnight at 0.5 mL/minute. The elution fractions were 5 mL each. The fractions were analyzed by SDS-PAGE and protein containing fractions were pooled. Concentration was measured using Bradford Assay/BSA Standard. Purified protein was stored in small aliquots at −80° C.
Assay 2: Evaluating Activator Potency in a Matrix Assay at Multiple Glucose Concentrations
Utilizing an adaptation of this method, representative compounds of the current invention were evaluated at 22 different concentrations and 16 different glucose concentrations in a coupled enzyme assay system that detects glucokinase activity via depletion of β-NADH.

Q: Which EC50 does the source give for `CCn1cc2c(Oc3ccc(S(C)(=N)=O)cc3)cc(C(=O)Nc3ccc(C)cn3)cc2n1` (single isomer, unassigned) [Example 1CW, 2-ethyl-N-(5-methylpyridin-2-yl)-4-[4-(S-methylsulfonimidoyl)phenoxy]-2H-indazole-6-carboxamide] here?
A: 555 nM

Q: With `CCn1cc2c(Oc3ccc(S(C)(=N)=O)cc3)cc(C(=O)Nc3ccc(C)cn3)cc2n1` (single isomer, unassigned) [Example 1CX, 2-ethyl-N-(5-methylpyridin-2-yl)-4-[4-(S-methylsulfonimidoyl)phenoxy]-2H-indazole-6-carboxamide] as the compound, how does the EC50 read?
A: 1370 nM

Q: With `CCn1cc2c(Oc3cnc(C(=O)N(C)C)cn3)cc(C(=O)Nc3cnc(OC)cn3)cc2n1` [Example 1AF, 4-(5-(dimethylcarbamoyl)pyrazin-2-yloxy)-2-ethyl-N-(5-methoxypyrazin-2-yl)-2H-indazole-6-carboxamide] as the compound, how does the EC50 read?
A: 532 nM

Q: For `Cc1cnc(NC(=O)c2cc(Oc3ccc(C(=O)N(C)C)cc3)c3cn(C)nc3c2)cn1` [Example 1AG, 4-(4-(dimethylcarbamoyl)phenoxy)-2-methyl-N-(5-methylpyrazin-2-yl)-2H-indazole-6-carboxamide], which EC50 is on record?
A: 713 nM

Q: Which EC50 does the source give for `Cn1cc2c(Oc3cnc(C(=O)N4CCC4)cn3)cc(C(=O)Nc3cnn(C)n3)cc2n1` [Example 1AH, 4-(5-(azetidine-1-carbonyl)pyrazin-2-yloxy)-2-methyl-N-(2-methyl-2H-1,2,3-triazol-4-yl)-2H-indazole-6-carboxamide] here?
A: 36000 nM

Q: With `CN(C)S(=O)(=O)c1ccc(Oc2cc(C(=O)Nc3cnn(C)n3)cc3nn(C)cc23)cc1` [Example 1AJ, 4-{4-[(dimethylamino)sulfonyl]phenoxy}-2-methyl-N-(2-methyl-2H-1,2,3-triazol-4-yl)-2H-indazole-6-carboxamide] as the compound, how does the EC50 read?
A: 703 nM

Q: `CNS(=O)(=O)c1ccc(Oc2cc(C(=O)Nc3cnc(C)cn3)cc3nn(C)cc23)cc1` [Example 1AK, 4-{4-[(methylamino)sulfonyl]phenoxy}-2-methyl-N-(5-methylpyrazin-2-yl)-2H-indazole-6-carboxamide] was tested. Which EC50 did it give?
A: 878 nM

Q: How did the EC50 turn out when `Cc1cnc(NC(=O)c2cc(Oc3ccc(S(=O)(=O)N(C)C)nc3)c3cn(C)nc3c2)cn1` [Example 1AL, 4-({6-[(dimethylamino)sulfonyl]pyridin-3-yl}oxy)-2-methyl-N-(5-methylpyrazin-2-yl)-2H-indazole-6-carboxamide] was run?
A: 3170 nM

Q: Which EC50 does the source give for `CN(C)S(=O)(=O)c1ccc(Oc2cc(C(=O)Nc3ccn(C)n3)cc3nn(C)cc23)cn1` [Example 1AM, 4-({6-[(dimethylamino)sulfonyl]pyridin-3-yl}oxy)-2-methyl-N-(1-methyl-1H-pyrazol-3-yl)-2H-indazole-6-carboxamide] here?
A: 3880 nM

Q: Which EC50 does the source give for `CCn1cc2c(Oc3cnc(N(C)S(C)(=O)=O)cn3)cc(C(=O)Nc3ccc(C)cn3)cc2n1` [Example 1AN, 2-ethyl-4-({5-[methyl(methylsulfonyl)amino]pyrazin-2-yl}oxy)-N-(5-methylpyridin-2-yl)-2H-indazole-6-carboxamide] here?
A: 532 nM

Q: Which EC50 does the source give for `Cn1ccc(NC(=O)c2cc(Oc3ccc(S(C)(=O)=O)nc3)c3cn(C)nc3c2)n1` [Example 1AO, 2-methyl-N-(1-methyl-1H-pyrazol-3-yl)-4-{[6-(methylsulfonyl)pyridin-3-yl]oxy}-2H-indazole-6-carboxamide] here?
A: 1290 nM

Q: Which EC50 does the source give for `Cc1ccc(NC(=O)c2cc(Oc3ccc(S(C)(=O)=O)nc3)c3cn(C)nc3c2)nc1` [Example 1AP, 2-methyl-N-(5-methylpyridin-2-yl)-4-{[6-(methylsulfonyl)pyridin-3-yl]oxy}-2H-indazole-6-carboxamide] here?
A: 1430 nM

Q: How did the EC50 turn out when `Cc1cnc(NC(=O)c2cc(Oc3ccc(S(C)(=O)=O)nc3)c3cn(C)nc3c2)cn1` [Example 1AQ, 2-methyl-N-(5-methylpyrazin-2-yl)-4-{[6-(methylsulfonyl)pyridin-3-yl]oxy}-2H-indazole-6-carboxamide] was run?
A: 5370 nM

Q: How did the EC50 turn out when `Cc1ccc(NC(=O)c2cc(Oc3ccc(S(C)(=O)=O)cc3C(F)(F)F)c3cn(C)nc3c2)nc1` [Example 1AR, 2-methyl-N-(5-methylpyridin-2-yl)-4-[4-(methylsulfonyl)-2-(trifluoromethyl)phenoxy]-2H-indazole-6-carboxamide] was run?
A: 545 nM

Q: For `CCn1cc2c(Oc3cnc(NS(C)(=O)=O)cn3)cc(C(=O)Nc3ccc(C)cn3)cc2n1` [Example 1AT, 2-ethyl-N-(5-methylpyridin-2-yl)-4-({5-[(methylsulfonyl)amino]pyrazin-2-yl}oxy)-2H-indazole-6-carboxamide], which EC50 is on record?
A: 4920 nM

Q: With `Cn1ccc(NC(=O)c2cc(Oc3ccc(S(N)(=O)=O)cc3)c3cn(C)nc3c2)n1` [Example 1AU, 4-[4-(aminosulfonyl)phenoxy]-2-methyl-N-(1-methyl-1H-pyrazol-3-yl)-2H-indazole-6-carboxamide] as the compound, how does the EC50 read?
A: 6220 nM

Q: `Cc1ccc(NC(=O)c2cc(Oc3ccc4c(c3)CCS4(=O)=O)c3cn(C)nc3c2)nc1` [Example 1AV, 4-[(1,1-dioxido-2,3-dihydro-1-benzothien-5-yl)oxy]-2-methyl-N-(5-methylpyridin-2-yl)-2H-indazole-6-carboxamide] was tested. Which EC50 did it give?
A: 817 nM

Q: Which EC50 does the source give for `CCn1cc2c(Oc3ccc4c(c3)CCS4(=O)=O)cc(C(=O)Nc3ccc(C)cn3)cc2n1` [Example 1AW, 4-[(1,1-dioxido-2,3-dihydro-1-benzothien-5-yl)oxy]-2-ethyl-N-(5-methylpyridin-2-yl)-2H-indazole-6-carboxamide] here?
A: 986 nM

Q: For `CCn1cc2c(Oc3ccc(S(C)(=O)=O)cc3)cc(C(=O)Nc3cnc(OC)cn3)cc2n1` [Example 1AX, 2-ethyl-N-(5-methoxypyrazin-2-yl)-4-[4-(methylsulfonyl)phenoxy]-2H-indazole-6-carboxamide], which EC50 is on record?
A: 567 nM

Q: With `CCS(=O)(=O)N(C)c1cnc(Oc2cc(C(=O)Nc3ccc(C)cn3)cc3nn(C)cc23)cn1` [Example 1AY, 4-({5-[(ethylsulfonyl)(methyl)amino]pyrazin-2-yl}oxy)-2-methyl-N-(5-methylpyridin-2-yl)-2H-indazole-6-carboxamide] as the compound, how does the EC50 read?
A: 673 nM

Same assay, conditions: Glucokinase EC50, Assay 2 matrix assay; 16 glucose concentrations; intrinsic EC50 = concentration affording a 50% reduction in the enzyme's Km (for glucose)

Q: `Cc1cnc(NC(=O)c2cc(Oc3ccc(S(=O)(=O)N(C)C)cc3)c3cn(C)nc3c2)cn1` [Example 1AI, 4-{4-[(dimethylamino)sulfonyl]phenoxy}-2-methyl-N-(5-methylpyrazin-2-yl)-2H-indazole-6-carboxamide] was tested. Which EC50 did it give?
A: 431 nM

Q: How did the EC50 turn out when `Cc1cnc(NC(=O)c2cc(Oc3ccc(S(N)(=O)=O)cc3)c3cn(C)nc3c2)cn1` [Example 1AS, 4-[4-(aminosulfonyl)phenoxy]-2-methyl-N-(5-methylpyrazin-2-yl)-2H-indazole-6-carboxamide] was run?
A: 2280 nM
